The NIST ThermoML archive (doi:10.1016/j.jct.2008.10.010)

Assay: molar heat capacity at constant pressure; xn = mol fraction of the nth substance listed
Settings: 101.3 kPa, Liquid, Small sample (50 mg) DSC

CCC(C)(C)O [2-methylbutan-2-ol] + CCCCCCC
Settings | molar heat capacity at constant pressure [J/K/mol]
300.15 K, x1 = 0.7015 | 252.48
300.15 K, x1 = 0.8023 | 251.41
300.15 K, x1 = 0.9139 | 250.21
300.15 K, x1 = 0.9609 | 249.66
301.14 K, x1 = 0.0061 | 225.7
301.14 K, x1 = 0.0494 | 236.34
301.14 K, x1 = 0.1 | 242.42
301.14 K, x1 = 0.1999 | 248.44
301.14 K, x1 = 0.2993 | 251.7
301.14 K, x1 = 0.4051 | 253.31
301.14 K, x1 = 0.4986 | 253.99
301.14 K, x1 = 0.5981 | 254.13
301.14 K, x1 = 0.7015 | 253.67
301.14 K, x1 = 0.8023 | 252.61
301.14 K, x1 = 0.9139 | 251.4
301.14 K, x1 = 0.9609 | 250.8
301.16 K, x1 = 0.0249 | 230.74
301.58 K, x1 = 0.1547 | 246.46
302.14 K, x1 = 0.0061 | 226.13
302.14 K, x1 = 0.0249 | 231.02
302.14 K, x1 = 0.0494 | 236.64
302.14 K, x1 = 0.1 | 243.03
302.14 K, x1 = 0.1547 | 246.89
302.14 K, x1 = 0.1999 | 249.24
302.14 K, x1 = 0.2993 | 252.65
302.14 K, x1 = 0.4051 | 254.36
302.14 K, x1 = 0.4986 | 255.15
302.14 K, x1 = 0.5981 | 255.29
302.14 K, x1 = 0.7015 | 254.9
302.14 K, x1 = 0.8023 | 253.83
302.14 K, x1 = 0.9139 | 252.62
302.14 K, x1 = 0.9609 | 251.98
303.15 K, x1 = 0.0061 | 226.42
303.15 K, x1 = 0.0249 | 231.23
303.15 K, x1 = 0.0494 | 236.93
303.15 K, x1 = 0.1 | 243.44
303.15 K, x1 = 0.1547 | 247.5
303.15 K, x1 = 0.1999 | 249.92
303.15 K, x1 = 0.2993 | 253.53
303.15 K, x1 = 0.4051 | 255.32
303.15 K, x1 = 0.4986 | 256.2
303.15 K, x1 = 0.5981 | 256.41
303.15 K, x1 = 0.7015 | 256.05
303.15 K, x1 = 0.8023 | 255
303.15 K, x1 = 0.9139 | 254.11
303.15 K, x1 = 0.9609 | 253.07
304.14 K, x1 = 0.0061 | 226.83
304.14 K, x1 = 0.0494 | 237.28
304.14 K, x1 = 0.1 | 243.93
304.14 K, x1 = 0.1547 | 248.12
304.14 K, x1 = 0.1999 | 250.66
304.14 K, x1 = 0.4986 | 257.22
304.14 K, x1 = 0.8023 | 256.13
304.14 K, x1 = 0.9139 | 254.91
304.14 K, x1 = 0.9609 | 254.18
304.16 K, x1 = 0.0249 | 231.5
304.16 K, x1 = 0.2993 | 254.39
304.16 K, x1 = 0.4051 | 256.27
304.16 K, x1 = 0.5981 | 257.54
304.16 K, x1 = 0.7015 | 257.2
305.14 K, x1 = 0.0061 | 227.18
305.14 K, x1 = 0.0249 | 231.73
305.14 K, x1 = 0.0494 | 237.51
305.14 K, x1 = 0.1 | 244.44
305.14 K, x1 = 0.1547 | 248.76
305.14 K, x1 = 0.1999 | 251.35
305.14 K, x1 = 0.2993 | 255.22
305.14 K, x1 = 0.4051 | 257.25
305.14 K, x1 = 0.4986 | 258.3
305.14 K, x1 = 0.5981 | 258.63
305.14 K, x1 = 0.7015 | 258.36
305.14 K, x1 = 0.8023 | 257.38
305.14 K, x1 = 0.9139 | 256.1
305.14 K, x1 = 0.9609 | 255.35
306.15 K, x1 = 0.0061 | 227.53
306.15 K, x1 = 0.0249 | 231.92
306.15 K, x1 = 0.0494 | 237.81
306.15 K, x1 = 0.1 | 244.85
306.15 K, x1 = 0.1547 | 249.34
306.15 K, x1 = 0.1999 | 252.03
306.15 K, x1 = 0.2993 | 256.04
306.15 K, x1 = 0.4051 | 258.23
306.15 K, x1 = 0.4986 | 259.33
306.15 K, x1 = 0.5981 | 259.69
306.15 K, x1 = 0.7015 | 259.47
306.15 K, x1 = 0.8023 | 258.63
306.15 K, x1 = 0.9139 | 257.22
306.15 K, x1 = 0.9609 | 256.43
307.14 K, x1 = 0.0061 | 227.97
307.16 K, x1 = 0.0249 | 232.13
307.16 K, x1 = 0.0494 | 238.05
307.16 K, x1 = 0.1 | 245.3
307.16 K, x1 = 0.1547 | 249.89
307.16 K, x1 = 0.1999 | 252.7
307.16 K, x1 = 0.2993 | 256.85
307.16 K, x1 = 0.4051 | 259.16
307.16 K, x1 = 0.4986 | 260.39
307.16 K, x1 = 0.5981 | 260.8
307.16 K, x1 = 0.7015 | 260.58
307.16 K, x1 = 0.8023 | 259.83
307.16 K, x1 = 0.9139 | 258.36
307.16 K, x1 = 0.9609 | 257.53
308.14 K, x1 = 0.0061 | 228.36
308.14 K, x1 = 0.0249 | 232.33
308.14 K, x1 = 0.0494 | 238.3
308.14 K, x1 = 0.1 | 245.7
308.14 K, x1 = 0.2993 | 257.61
308.14 K, x1 = 0.4051 | 260.05
308.14 K, x1 = 0.4986 | 261.33
308.14 K, x1 = 0.5981 | 261.79
308.14 K, x1 = 0.7015 | 261.67
308.14 K, x1 = 0.8023 | 260.9
308.14 K, x1 = 0.9139 | 259.4
308.14 K, x1 = 0.9609 | 258.61
308.16 K, x1 = 0.1547 | 250.43
308.16 K, x1 = 0.1999 | 253.31
309.15 K, x1 = 0.0061 | 228.7
309.15 K, x1 = 0.0249 | 232.53
309.15 K, x1 = 0.0494 | 238.53
309.15 K, x1 = 0.1 | 246.14
309.15 K, x1 = 0.1547 | 250.99
309.15 K, x1 = 0.1999 | 253.95
309.15 K, x1 = 0.2993 | 258.43
309.15 K, x1 = 0.4051 | 260.95
